# Results from patent US11026936B2, “Piperidinyl-propanone derivatives” (Merck Patent GmbH, priority 2016, dated 2021).
# What was measured:
# [1] = system: PDH-E1alpha (pSer300) in HEK293T cells; assay: Cellular immunofluorescence assay, PDH-E1alpha (pSer300); type: cell-based; conditions: Homo sapiens, HEK-293T, 5 hours incubation, read-out: IC50 (cell data)
# Protocol: Cellular Assay for Determination of Compound Activities
# Compound activities were determined in a cellular immunofluorescence assay. Human HEK293T cells were seeded into black 384-well plates with clear bottom and grown overnight.
# Next day, test compounds were added to the wells and the plates incubated for 5 hours. Following this, cells were fixed with formaldehyde, permeabilised and blocked. The primary antibody, Anti-PDH-E1alpha (pSer300), AP1064 (Merck Millipore) was added and incubated overnight in the plate wells. Next, cells were washed and the seconday antibody, Alexa Fluor 488, goat anti-rabbit ab (A-11008, Invitrogen) was added together with Hoechst 33258 (H3569, Invitrogen) and incubated for 1 hour in the plate wells. Finally, cells were washed and the plates were measured on the laser scanning cytometer acumen hci (TTpLabtech).
# The raw data were normalized against a pharmacological inhibitor control and dose response curves were generated by plotting the percent effect values using the software package Genedata screener (Genedata).
# [2] = target: PDHK2 (Homo sapiens (Human), UniProt Q15119); assay: Biochemical activity testing of PDHK2: PDC inactivation assay; conditions: human rec PDHK2, PDC from porcine heart, ATP 5 μM; read-out: IC50 PDHK2 (enzyme assay)
# Source text: Biochemical Activity Testing of PDHK2: PDC Inactivation Assay
# The biochemical activity assay for PDHK2 is based on the inactivation of PDC through phosphorylation by PDHK2. The assay is run in two steps: the enzymatic PDHK2 reaction in which isolated PDC is phosphorylated by PDHK2 with ATP as co-substrate and the PDC activity assay in which pyruvate and NAD are converted to acetyl-CoA and NADH. The PDC activity correlates to the increase in NADH and thereby is detectable directly via the increasing fluorescence signal (Exc 340 nm, Em 450 nm). Inhibition of PDHK2 results in a lower phosphorylation status and thereby a less decrease in activity of PDC and a stronger increase in NADH fluorescence signal.
# The PDC inactivation assay is performed in Greiner 384-well microtiter plates and is used for high throughput screen. 4 μl of PDHK2 (human, rec, Carna Bioscience, 10 ng/μl-137 nM final concentration) and PDC (isolated from porcine heart, Sigma-Aldrich, 20 mU/ml final concentration) are incubated in the absence or presence of the test compound (10 dilution concentrations) for 30 min at room temperature in kinase buffer (15 mM potassium phosphate buffer, pH 7.0, 60 mM KCl, 1.5 mM DTT, 2.5 mM MgCl2, 0.0125% (w/v) BSA, 0.125% Pluronic F-68). The kinase reaction is started by the addition of 4 μl ATP substrate solution (fc 5 μM in kinase buffer). After 30 min incubation at 37° C. 40 μl of PDC reaction solution (100 mM Tris/HCl, pH 7.8, 0.5 mM EDTA, 1 mM MgCl2, 50 mM NaF, 0.25 mM Coenzyme A, 5 mM pyruvate, 1 mM NAD, 5 mM DTT, 1 mM thiamine pyrophosphate) is added. The first fluorescence measurement is performed on a Perkin Elmer Envision (Exc 340 nm, Em 450 nm). The reaction is incubated for 45 min at room temperature. Afterwards a second fluorescence measurement is performed and the PDC activity is calculated by the difference between both measurements. As full value for the PDHK2 assay the inhibitor-free PDHK2 reaction is used. The pharmacological zero value used is DCA (Sigma-Aldrich) in a final concentration of 3 mM. The inhibitory values (IC50) were determined using either the program Symyx Assay Explorer® or Condosseo® from GeneData.
# [3] = target: human PDHK2 (12-407) (Homo sapiens (Human), UniProt Q15119); assay: Isothermal titration calorimetry (ITC) binding; conditions: 30° C., pH 7.5
# Protocol: Isothermal Titration Calorimetry
# ITC measurements were performed with a VP-ITC micro calorimeter (Microcal, LLC/GE Healthcare Bio-Sciences AB, Uppsala, Sweden). In general titrations were performed by titrating the protein (50 μM) to the test compound (5 μM) in 12 μl injections. All binding experiments were carried out at 30° C. In general the test compounds were diluted form DMSO stock solutions into the measurement buffer with a maximum final concentration of 1% DMSO. The measurement buffer was 20 mM HEPES, 135 mM KCl, 1 mM TCEP, 2 mM MgCl2, 15 mM NaH2PO4, pH 7.5. The human PDHK2 (12-407) was produced in E. coli as his-tagged protein and purified by affinity chromatography. The tag was removed by side specific proteolysis. Before titration the protein buffer was changed to the measurement buffer containing the same DMSO concentration as the test compound dilution. ITC data analysis was performed using Origin 7 calorimetry software from the same supplier. For most measurements a binding model of one binding site was assumed. According to the applied mathematical model it is possible to calculate the binding constant (KA), the observed binding enthalpy (ΔH^obs) as well as the stoichiometry (N) of the formed complex. Preceding analysis the raw data was corrected for the heats of dilution by extrapolating from the saturation value from the end of titration. In order to allow for direct comparison between the respective experimental series and protein preparations the protein concentration was corrected by referencing titrations to a well behaved standard inhibitor. The apparent stoichiometry values defined the fraction of binding competent protein and compensated for relative errors in protein concentration measurements. This corrected protein concentration was used to set up ITC experiment series with test compounds. Any deviations from ideal 1:1 stoichiometry observed here were attributed to errors in compound concentration. This nominal compound concentration was corrected as well to achieve 1:1 stoichiometry in the fit.
Structure (SMILES),IC50 [2],Kd [3],IC50 [1]
"C[C@@](O)(C(=O)N1CCC(C2(c3nnc(-c4ccc(F)cc4)[nH]3)CC2)CC1)C(F)(F)F [Compound A2, (R)-3,3,3-Trifluoro-1-{4-{1-[5-(4-fluorophenyl)-4H-[1,2,4]triazol-3-yl]-cyclopropyl}-piperidin-1-yl}-2-hydroxy-2-methyl-propan-1-one]",–,0.18 µM,2 µM
"CC(C)(c1nnc(-c2ccccc2)[nH]1)C1CCN(C(=O)[C@@](C)(O)C(F)(F)F)CC1 [Compound A3, (R)-3,3,3-Trifluoro-2-hydroxy-2-methyl-1-{4-[1-methyl-1-(5-phenyl-4H-[1,2,4]triazol-3-yl)-ethyl]-piperidin-1-yl}-propan-1-one]",0.32 µM,0.098 µM,3.3 µM
"CC(C)(c1nnc(C2CCCCC2)[nH]1)C1CCN(C(=O)[C@@](C)(O)C(F)(F)F)CC1 [Compound A4, (R)-1-{4-[1-(5-Cyclohexyl-4H-[1,2,4]triazol-3-yl)-1-methyl-ethyl]-piperidin-1-yl}-3,3,3-trifluoro-2-hydroxy-2-methyl-propan-1-one]",1.4 µM,0.29 µM,3.9 µM
"C[C@@](O)(C(=O)N1CCC(C2(c3nnc(-c4ccccc4)o3)CC2)CC1)C(F)(F)F [Compound A5, (R)-3,3,3-Trifluoro-2-hydroxy-2-methyl-1-{4-[1-(5-phenyl-[1,3,4]oxadiazol-2-yl)-cyclopropyl]-piperidin-1-yl}-propan-1-one]",0.44 µM,0.2 µM,1.5 µM
"C[C@@](O)(C(=O)N1CCC(C2(c3nnc(-c4ccc(F)cc4)o3)CC2)CC1)C(F)(F)F [Compound A6, (R)-3,3,3-Trifluoro-1-{4-{1-[5-(4-fluoro-phenyl)-[1,3,4]oxadiazol-2-yl]-cyclopropyl}-piperidin-1-yl}-2-hydroxy-2-methyl-propan-1-one]",0.5 µM,0.27 µM,2 µM
"Cc1ccc(-c2nnc(C3([C@@H]4CCN(C(=O)[C@@](C)(O)C(F)(F)F)C[C@@H]4C)CC3)o2)cc1 [Compound A24, (R)-3,3,3-Trifluoro-2-hydroxy-2-methyl-1-{(3R,4R)-3-methyl-4-[1-(5-p-tolyl-[1,3,4]oxadiazol-2-yl)-cyclopropyl]-piperidin-1-yl}-propan-1-one]",7.3 µM,–,–
"COc1ccc(-c2nnc(C3([C@@H]4CCN(C(=O)[C@@](C)(O)C(F)(F)F)C[C@@H]4C)CC3)[nH]2)cc1 [Compound A27, (R)-3,3,3-Trifluoro-2-hydroxy-1-((3R,4R)-4-{1-[5-(4-methoxy-phenyl)-4H-[1,2,4]triazol-3-yl]-cyclopropyl}-3-methyl-piperidin-1-yl)-2-methyl-propan-1-one]",13 µM,–,–
"COc1ccc(-c2nnc(C3([C@@H]4CCN(C(=O)[C@@](C)(O)C(F)(F)F)C[C@@H]4C)CC3)o2)cc1 [Compound A30, (R)-3,3,3-Trifluoro-2-hydroxy-1-((3R,4R)-4-{1-[5-(4-methoxy-phenyl)-[1,3,4]oxadiazol-2-yl]-cyclopropyl}-3-methyl-piperidin-1-yl)-2-methyl-propan-1-one]",1.9 µM,–,–
"C[C@H]1CN(C(=O)[C@@](C)(O)C(F)(F)F)CC[C@H]1C1(c2nnc(-c3ccc(Cl)cc3)o2)CC1 [Compound A36, (R)-1-((3R,4R)-4-{1-[5-(4-Chloro-phenyl)-[1,3,4]oxadiazol-2-yl]-cyclopropyl}-3-methyl-piperidin-1-yl)-3,3,3-trifluoro-2-hydroxy-2-methyl-propan-1-one]",8.2 µM,–,–
"COc1ccc(-c2nnc(C3([C@@H]4CCN(C(=O)[C@@](C)(O)C(F)(F)F)C[C@@H]4C)CC3)[nH]2)cn1 [Compound A39, (R)-3,3,3-Trifluoro-2-hydroxy-1-((3R,4R)-4-{1-[5-(6-methoxy-pyridin-3-yl)-4H-[1,2,4]triazol-3-yl]-cyclopropyl}-3-methyl-piperidin-1-yl)-2-methyl-propan-1-one]",6 µM,–,–

# Second part, led by results:
IC50 [2],Kd [3],Structure (SMILES),IC50 [1]
11 µM,–,"C[C@H]1CN(C(=O)[C@@](C)(O)C(F)(F)F)CC[C@H]1C1(c2nnc(-c3ccccc3)o2)CC1 (stereo in doubt) [Compound A15, (R)-3,3,3-Trifluoro-2-hydroxy-2-methyl-1-{(S)-3-methyl-4-[1-(5-phenyl-[1,3,4]oxadiazol-2-yl)-cyclopropyl]-piperidin-1-yl}-propan-1-one]",7.3 µM
0.15 µM,0.0049 µM,"C[C@@H]1CN(C(=O)[C@@](C)(O)C(F)(F)F)CC[C@@H]1C1(c2nnc(-c3ccccc3)o2)CC1 (stereo in doubt) [Compound A16, (R)-3,3,3-Trifluoro-2-hydroxy-2-methyl-1-{(R)-3-methyl-4-[1-(5-phenyl-[1,3,4]oxadiazol-2-yl)-cyclopropyl]-piperidin-1-yl}-propan-1-one]",0.035 µM
0.59 µM,0.11 µM,"C[C@@](O)(C(=O)N1CCC(C2(c3nnc(-c4ccccc4)[nH]3)CC2)CC1)C(F)(F)F [Compound A1, (R)-3,3,3-Trifluoro-2-hydroxy-2-methyl-1-{4-[1-(5-phenyl-1H-[1,2,4]triazol-3-yl)-cyclopropyl]-piperidin-1-yl}-propan-1-one]",3 µM
6.6 µM,–,"C[C@H]1CN(C(=O)[C@@](C)(O)C(F)(F)F)CC[C@H]1C1(c2nnc(-c3ccccc3)[nH]2)CC1 [Compound A13, (R)-3,3,3-Trifluoro-2-hydroxy-2-methyl-1-{(3R,4R)-3-methyl-4-[1-(5-phenyl-4H-[1,2,4]triazol-3-yl)-cyclopropyl]-piperidin-1-yl}-propan-1-one]",–
2.6 µM,–,"C[C@H]1CN(C(=O)[C@@](C)(O)C(F)(F)F)CC[C@H]1C1(c2nnc(-c3ccc(F)cc3)[nH]2)CC1 [Compound A18, (R)-3,3,3-Trifluoro-1-((3R,4R)-4-{1-[5-(4-fluoro-phenyl)-4H-[1,2,4]triazol-3-yl]-cyclopropyl}-3-methyl-piperidin-1-yl)-2-hydroxy-2-methyl-propan-1-one]",–
4.9 µM,–,"Cc1ccc(-c2nnc(C3([C@@H]4CCN(C(=O)[C@@](C)(O)C(F)(F)F)C[C@@H]4C)CC3)[nH]2)cc1 [Compound A21, (R)-3,3,3-Trifluoro-2-hydroxy-2-methyl-1-{(3R,4R)-3-methyl-4-[1-(5-p-tolyl-4H-[1,2,4]triazol-3-yl)-cyclopropyl]-piperidin-1-yl}-propan-1-one]",–
18 µM,–,"C[C@H]1CN(C(=O)[C@@](C)(O)C(F)(F)F)CC[C@H]1C1(c2nnc(-c3ccc(Cl)cc3)[nH]2)CC1 [Compound A33, (R)-1-((3R,4R)-4-{1-[5-(4-Chloro-phenyl)-4H-[1,2,4]triazol-3-yl]-cyclopropyl}-3-methyl-piperidin-1-yl)-3,3,3-trifluoro-2-hydroxy-2-methyl-propan-1-one]",–
